# Experimental data: the supplement of paper PMC10307832
# Assays:
# Assay in all cases: relative viability (nuclei count vs DMSO), 5 days (fraction); higher = more cells survive
# [1] = compound: O=C(/C=C/c1ccccc1)NC(NC(=S)Nc1cccc2cccnc12)C(Cl)(Cl)Cl [Salubrinal] + Cc1nc(Nc2ncc(C(=O)Nc3c(C)cccc3Cl)s2)cc(N2CCN(CCO)CC2)n1 [Dasatinib] (partner 0.075 µM)
# How it was run: (§1)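 Lung cancer cell lines in 1536-well plates got either a single drug or a fixed anchor-drug dose together with five library-drug doses (not always all listed) in √10 steps, by pin tool, on the day after seeding. Nuclei were counted after 5 days, and relative viability is the treated-to-vehicle ratio of nuclei counts. Values are medians of duplicate plates.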
# [2] = compound: Cc1ccc2nc(NCCN)c3ncc(C)n3c2c1 + C[C@@H](Oc1cc(-c2cnn(C3CCNCC3)c2)cnc1N)c1c(Cl)ccc(F)c1Cl [Crizotinib] (partner 1 µM)
# How it was run: as §1
# [3] = compound: O=C(/C=C/c1ccccc1)NC(NC(=S)Nc1cccc2cccnc12)C(Cl)(Cl)Cl [Salubrinal] + CCNC(=O)c1noc(-c2cc(C(C)C)c(O)cc2O)c1-c1ccc(CN2CCOCC2)cc1 [Luminespib] (partner 0.01 µM)
# How it was run: as §1
# [4] = compound: O=C(/C=C/c1ccccc1)NC(NC(=S)Nc1cccc2cccnc12)C(Cl)(Cl)Cl [Salubrinal] + CC1(C)CCC(c2ccc(Cl)cc2)=C(CN2CCN(c3ccc(C(=O)NS(=O)(=O)c4ccc(N[C@H](CCN5CCOCC5)CSc5ccccc5)c(S(=O)(=O)C(F)(F)F)c4)cc3)CC2)C1 [Navitoclax] (partner 0.5 µM)
# How it was run: as §1
Cell Line,relative viability ([1]; first compound 0.08 µM),relative viability ([1]; first compound 0.253 µM),relative viability ([1]; first compound 0.8 µM),relative viability ([1]; first compound 2.53 µM),relative viability ([1]; first compound 8 µM),relative viability ([2]; first compound 0.04 µM),relative viability ([2]; first compound 0.1265 µM),relative viability ([2]; first compound 0.4 µM),relative viability ([2]; first compound 1.265 µM),relative viability ([2]; first compound 4 µM),relative viability ([3]; first compound 0.08 µM),relative viability ([3]; first compound 0.253 µM),relative viability ([3]; first compound 0.8 µM),relative viability ([3]; first compound 2.53 µM),relative viability ([3]; first compound 8 µM),relative viability ([4]; first compound 0.08 µM),relative viability ([4]; first compound 0.253 µM),relative viability ([4]; first compound 0.8 µM),relative viability ([4]; first compound 2.53 µM),relative viability ([4]; first compound 8 µM)
201T,0.56,0.596,0.669,0.602,0.573,1.07,1.06,1.07,1.09,1.06,1.06,1.05,1.11,1.09,1.07,1.2,1.2,1.24,1.19,1.22
A549,–,–,–,–,–,0.826,0.744,0.753,0.547,0.485,–,–,–,–,–,1.4,1.11,1.22,1.21,1.21
A-427,0.724,0.643,0.747,0.68,0.654,1.01,1.01,0.835,0.966,0.942,1.04,0.696,1.07,0.8,1.2,0.942,1.01,1.08,0.886,0.926
ABC-1,0.54,0.508,0.633,0.634,0.554,1.09,1.04,1.23,0.988,0.68,0.559,–,0.8,0.473,0.728,–,–,–,–,–
BEN,0.34,0.406,0.397,0.313,0.308,0.944,0.59,0.872,0.798,0.842,0.53,0.323,0.425,0.354,0.265,0.0699,0.0611,0.0613,0.0706,0.0675
CAL-12T,0.543,0.422,0.347,0.264,0.23,0.787,0.716,0.725,0.603,0.344,0.393,0.224,0.428,0.449,0.518,1.29,0.952,1.21,1.09,1.06
COR-L23,0.522,0.496,0.645,0.53,0.453,0.737,0.608,0.628,0.572,0.541,0.933,0.612,0.587,0.773,0.728,1.2,0.952,1.15,0.927,0.865
COR-L 105,0.365,0.325,0.345,0.317,0.319,0.797,0.721,0.887,0.704,0.422,0.7,0.699,0.761,0.812,0.738,0.715,0.718,0.76,0.765,0.723
Calu-6,–,–,–,–,–,0.803,0.776,0.794,0.77,0.426,–,–,–,–,–,0.903,0.749,0.888,0.877,0.809
ChaGo-K-1,0.685,0.544,0.667,0.57,0.524,1.17,1.03,1.15,0.989,0.922,0.633,0.581,0.604,0.437,0.588,1.07,0.849,1.58,1.37,1.12
EBC-1,–,–,–,–,–,0.219,0.204,0.206,0.207,0.17,–,–,–,–,–,0.349,0.332,0.435,0.399,0.287
EKVX,0.635,0.538,0.552,0.469,0.426,0.921,0.794,1.02,1.05,0.903,0.902,0.969,0.839,0.86,0.891,0.958,0.983,0.911,1.08,1.06
EMC-BAC-2,0.305,0.334,0.359,0.411,0.335,0.761,0.728,0.735,0.733,0.775,1.26,0.835,1.28,1.16,1.11,1.53,1.01,1.2,1.16,1.15
EPLC-272H,0.41,0.324,0.357,0.383,0.294,0.948,0.846,1.06,0.948,0.91,0.382,0.547,0.156,0.275,0.164,1.23,1.02,1.4,1.19,1.04
H3255,0.291,0.366,0.459,0.35,0.356,0.939,0.743,0.846,0.788,0.694,0.939,0.948,1.14,0.847,0.786,0.637,0.481,0.582,0.523,0.564
HARA,0.341,0.29,0.282,0.265,0.263,0.951,0.916,1.02,0.746,0.917,0.848,0.688,1.08,0.487,0.496,1.05,1.18,1.13,1.16,1.11
HCC-15,0.723,0.586,0.701,0.627,0.498,0.791,0.8,0.779,0.742,0.693,0.363,0.294,0.245,0.468,0.206,0.785,0.602,0.722,0.771,0.689
HCC-44,–,–,–,–,–,0.851,0.827,0.768,0.828,0.835,1.32,1.08,1.09,1.02,0.894,1.06,0.899,0.999,0.97,0.802
